The source of these data is patent US20240025875A1, “A COMPOUND AS A THYROID HORMONE BETA RECEPTOR AGONIST AND USE THEREOF” (SUNSHINE LAKE PHARMA CO., LTD., priority 2020, published 2024).

The target of series [1] is T1, TRβ (Homo sapiens, UniProt P10828).
T1 construct: 5 μL of 4×TR beta/alfa-LBD; purchased Invitrogen PV4686
T1 sequence (P10828 217-461 limits assumed): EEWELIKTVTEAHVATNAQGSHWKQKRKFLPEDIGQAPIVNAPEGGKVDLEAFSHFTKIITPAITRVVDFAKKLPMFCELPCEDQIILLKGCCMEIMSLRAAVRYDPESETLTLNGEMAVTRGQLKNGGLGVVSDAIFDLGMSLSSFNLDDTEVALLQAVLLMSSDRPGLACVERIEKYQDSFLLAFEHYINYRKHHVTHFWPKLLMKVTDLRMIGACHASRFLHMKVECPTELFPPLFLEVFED
Description: LanthaScreen TR-FRET Thyroid Receptor beta Coactivator Assay (in vitro binding activity). The note with it: TR beta-LBD. The procedure: (§1) 2. Detection of the Binding Activity of the Compound of the Present Invention to TRα or TRβ In Vitro
(§2) Test Materials • LanthaScreen TR-FRET Thyroid Receptor beta Coactivator Assay kit was purchased from Invitrogen, Cat. No. PV4686; • LanthaScreen TR-FRET Thyroid Receptor alfa Coactivator Assay kit was purchased from Invitrogen, Cat. No. PV4687.
(§3) The method was experimented with LanthaScreen TR-FRET Thyroid Receptor beta/alfa Coactivator Assay kit. The test compound was dissolved in DMSO and diluted 3 times to a total of 10 concentrations, and then diluted with TR-FRET Coregulator Buffer C in the kit to form a solution containing 2% DMSO, 10 μL of the solution containing 2% DMSO was taken into a 384-well plate, then 5 μL of 4×TR beta/alfa-LBD, 5 μL of a mixture containing 0.4 μM fluorescein-SRC2-2 and 8 nM Tb anti-GST antibody were added into each well, mixed thoroughly, and incubated at room temperature for 1 h in the dark. After 1 h, BMG LABTECH's PHERAstar FSX microplate reader was used to read the fluorescence value (RFU) at […]. The TR-FRET ratio was calculated by dividing the emission signal at 520 nm by the emission signal at 495 nm. Graph Pad Prism 5 software was used to draw the curve and calculate the EC50 value. The in vitro binding activity test results of some of the compounds of the examples of the present invention are shown in Table 1 below.
(In general: TR-FRET usually uses a lanthanide donor and a delayed reading to cut background.)

The target in series [2] is T2, TRα (Homo sapiens, UniProt P10827).
T2 construct: 5 μL of 4×TR beta/alfa-LBD; purchased Invitrogen PV4687
T2 sequence (P10827 163-410 isoform P10827-2 limits assumed, other chains not shown): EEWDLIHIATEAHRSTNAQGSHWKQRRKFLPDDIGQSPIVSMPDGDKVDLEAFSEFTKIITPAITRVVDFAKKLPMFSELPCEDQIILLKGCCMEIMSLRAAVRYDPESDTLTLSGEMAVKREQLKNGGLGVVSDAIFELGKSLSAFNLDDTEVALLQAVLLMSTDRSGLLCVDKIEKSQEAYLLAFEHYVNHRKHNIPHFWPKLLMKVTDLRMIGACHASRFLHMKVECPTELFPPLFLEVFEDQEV
The series can be described thus: LanthaScreen TR-FRET Thyroid Receptor alfa Coactivator Assay (in vitro binding activity). Conditions: TR alfa-LBD. The procedure:
as §1, §2, §3

Series [3] in a line: Pharmacokinetic determination in SD rats (i.v. and i.g.). It is filed as in vivo. Conditions: for AUC(0-inf) / AUC(0-t) / Cmax / clearance / half-life / Vd: male, Sprague-Dawley (SD), rat, plasma; for Vd: read-out: VSS. The source says:
Test purposes: The following method was used to determine the pharmacokinetics of the compound of the present invention.
Test Materials: • Experimental reagents and test samples used: Propranolol (internal standard), methanol, ammonium acetate, K2EDTA (potassium ethylenediaminetetraacetic acid), formic acid, acetonitrile MTBE (methyl tert-butyl ether). KolliphorHS15 (macrogol 12 hydroxystearate), DMSO (dimethyl sulfoxide) are commercially available • SD rats: male, 180-220 g, 7-8 weeks old, purchased from Human Slack Experimental Animal Co., Ltd.
Each test sample prepared was completely dissolved in a mixture of 5% DMSO+5% KolliphorHS 15+90% Saline according solubility property thereof.
Samples were processed by liquid-liquid extraction, chromatographically separated, quantitatively analyzed by multiple reaction ion monitoring (MRM) on a triple quadrupole tandem mass spectrometer, and the concentration of the results was calculated by instrument quantitative software.
30 μL of plasma sample was precisely pipetted, added with 250 μL of internal standard, and vortexed to mix thoroughly. Plasma samples was extracted once with 1 mL of MTBE, centrifuged at 13,000 rpm for 2 min at 4° C. 800 μL of the supernatant was sucked out, evaporated to dryness in a 96-well nitrogen blower, and the residue was reconstituted with 150 μL of methanol/water (v/v=50/50), vortexed to mix, and injected with an injection volume of 8 μL.
LC/MS/MS method was used to determine the content of the test compound in rat plasma after administration of different compounds.
Pharmacokinetic parameters were calculated using a noncompartmental method by WinNonLin 6.1 software.

Structures are written as SMILES. Some results are limits rather than exact numbers.

Take `O=C1c2ccc(Oc3c(Cl)cc(-n4ncc(=O)[nH]c4=O)cc3Cl)cc2CCN1Cc1ccc(F)cc1` [Example 20, 2-(3,5-dichloro-4-((2-(4-fluorobenzyl)-1-oxo-1,2,3,4-tetrahydroisoquinolin-6-yl)oxy)phenyl)-1,2,4-triazine-3,5(2H,4H)-dione]: a half-maximal effect in series [1] (EC50) was put at 0.012 µM. In addition, the EC50 – broadly, the concentration at which the effect is half-maximal – in series [2] was over 100 µM. The F in series [3] (ig, 5 mg/kg) worked out at 115.1%. Besides, in series [3] (iv, 1 mg/kg), the AUC(0-inf) (commonly total exposure, with the tail of the curve extrapolated) was determined as 16400 ng·h/mL; the AUC(0-t) (usually the area under the concentration-time curve up to a stated or last time point) was found to be 16300 ng·h/mL; the Cmax (commonly the peak of the concentration-time curve) was determined as 3990 ng/mL; the clearance (in general, the volume of plasma or blood freed of the substance per unit of time) stood at 1.01 mL/min/kg. In series [3] (iv, 1 mg/kg), the half-life – broadly, the time in which the quantity being followed falls by half – was 3.16 h and the Vd is 0.251 L/kg. In series [3] (po, ig, 5 mg/kg), the AUC(0-inf) was found to be 94400 ng·h/mL, the AUC(0-t) was found to be 93700 ng·h/mL, the Cmax was found to be 10400 ng/mL and the half-life is 3.57 h.

Turning to `Cc1ccc(CN2CCc3cc(Oc4c(Cl)cc(-n5ncc(=O)[nH]c5=O)cc4Cl)ccc3C2=O)cc1` [Example 21, 2-(3,5-dichloro-4-((2-(4-methylbenzyl)-1-oxo-1,2,3,4-tetrahydroisoquinolin-6-yl)oxy)phenyl)-1,2,4-triazine-3,5(2H,4H)-dione], the EC50 in series [1] was 0.019 µM. The EC50 in series [2] is over 100 µM. This compound registered a F in series [3] (ig, 5 mg/kg) of 81.9%. Also, in series [3] (iv, 1 mg/kg), the AUC(0-inf) came to 1020 ng·h/mL, the AUC(0-t) came to 1020 ng·h/mL, the concentration peaked (Cmax) at 2760 ng/mL and the clearance worked out at 16.3 mL/min/kg. Besides, in series [3] (iv, 1 mg/kg), the half-life was 1.02 h and the Vd was 0.308 L/kg. In series [3] (po, ig, 5 mg/kg), this compound gave an AUC(0-inf) of 4180 ng·h/mL, an exposure AUC(0-t) of 4160 ng·h/mL, a Cmax of 4730 ng/mL and a half-life of 1.44 h.

With `O=C1c2ccc(Oc3c(Cl)cc(-n4ncc(=O)[nH]c4=O)cc3Cl)cc2CCN1Cc1ccncc1` [Example 24, 2-(3,5-dichloro-4-((1-oxo-2-(pyridin-4-ylmethyl)-1,2,3,4-tetrahydroisoquinolin-6-yl)oxy)phenyl)-1,2,4-triazine-3,5(2H,4H)-dione], the EC50 in series [1] stood at 0.075 µM. In series [2], this compound showed an EC50 of over 100 µM. In series [3] (ig, 5 mg/kg), this compound registered an F of 117.7%. For the same compound, in series [3] (iv, 1 mg/kg), the AUC(0-inf) came out at 3790 ng·h/mL, the AUC(0-t) was determined as 3720 ng·h/mL, the highest concentration (Cmax) was determined as 4020 ng/mL and the clearance worked out at 4.39 mL/min/kg. For the same compound, in series [3] (iv, 1 mg/kg), the half-life is 1.16 h and the Vd amounted to 0.337 L/kg. Further, in series [3] (po, ig, 5 mg/kg), the AUC(0-inf) was 223000 ng·h/mL, the AUC(0-t) is 21900 ng·h/mL, the Cmax was determined as 7790 ng/mL and the half-life was 2.65 h.

The compound `O=C1c2ccc(Oc3c(Cl)cc(-n4ncc(=O)[nH]c4=O)cc3Cl)cc2CCN1c1ccc(F)cc1` [Example 28] registered a 50% effective concentration (EC50) in series [1] of 0.017 µM. Besides, the EC50 in series [2] is over 100 µM. Further, in series [3] (ig, 5 mg/kg), the F is recorded as 97.6%. In series [3] (iv, 1 mg/kg), this compound came in with an AUC(0-inf) of 9640 ng·h/mL, an exposure AUC(0-t) of 8730 ng·h/mL, a Cmax of 8400 ng/mL and a clearance of 1.73 mL/min/kg. In series [3] (iv, 1 mg/kg), the half-life was 2.91 h and the Vd was 0.246 L/kg. In series [3] (po, ig, 5 mg/kg), this compound had an AUC(0-inf) of 47000 ng·h/mL, an AUC(0-t) of 47000 ng·h/mL, a Cmax of 15500 ng/mL and a half-life of 2.29 h.

Consider `O=C1c2ccc(Oc3c(Cl)cc(-n4ncc(=O)[nH]c4=O)cc3Cl)cc2CCN1Cc1ccc(C(F)(F)F)cc1` [Example 29, 2-(3,5-dichloro-4-((1-oxo-2-(4-(trifluoromethyl)benzyl)-1,2,3,4-tetrahydroisoquinolin-6-yl)oxy)phenyl)-1,2,4-triazine-3,5(2H,4H)-dione], for which the EC50 in series [1] turned out to be 0.091 µM. The EC50 in series [2] was over 100 µM. In series [3] (ig, 5 mg/kg), the F is on record as 66.2%. In series [3] (iv, 1 mg/kg), the AUC(0-inf) came to 56000 ng·h/mL, the AUC(0-t) stood at 48700 ng·h/mL, the highest level (Cmax) was 4270 ng/mL and the clearance turned out to be 0.297 mL/min/kg. In series [3] (iv, 1 mg/kg), the half-life was 8.47 h and the Vd came out at 0.194 L/kg. In series [3] (po, ig, 5 mg/kg), this compound showed an AUC(0-inf) of 236000 ng·h/mL, an AUC(0-t) of 159000 ng·h/mL, a Cmax of 10300 ng/mL and a half-life of 14.1 h.

In turn, `O=C1c2ccc(Oc3c(Cl)cc(-n4ncc(=O)[nH]c4=O)cc3Cl)cc2CCN1Cc1cccc(C(F)(F)F)c1` [Example 34, 2-(3,5-dichloro-4-((2-(3-(trifluoromethyl)benzyl)-1-oxo-1,2,3,4-tetrahydroisoquinolin-6-yl)oxy)phenyl)-1,2,4-triazine-3,5(2H,4H)-dione] registered an EC50 in series [1] of 0.021 µM. The same compound yielded an EC50 in series [2] of over 100 µM. The same compound came in with a F in series [3] (ig, 5 mg/kg) of 111%. In series [3] (iv, 1 mg/kg), this compound gave an AUC(0-inf) of 22400 ng·h/mL, an AUC(0-t) of 18800 ng·h/mL, a Cmax of 3020 ng/mL and a clearance of 0.744 mL/min/kg. Moreover, in series [3] (iv, 1 mg/kg), the half-life was 9.87 h and the Vd was found to be 0.531 L/kg. In series [3] (po, ig, 5 mg/kg), this compound showed a total exposure AUC(0-inf) of 124000 ng·h/mL, an area under the curve AUC(0-t) of 110000 ng·h/mL, a Cmax of 8460 ng/mL and a half-life of 7.67 h.

With `N#Cc1nn(-c2cc(Cl)c(Oc3ccc4c(c3)CCN(c3cccnc3)C4=O)c(Cl)c2)c(=O)[nH]c1=O` [Example 49f, 2-(3,5-dichloro-4-((1-oxo-2-(pyridin-3-yl)-1,2,3,4-tetrahydroisoquinolin-6-yl)oxy)phenyl)-3,5-dioxo-2,3,4,5-tetrahydro-1,2,4-triazine-6-carbonitrile], the EC50 in series [1] is 0.769 µM; in series [2], over 100 µM.

`O=C1c2ccc(Oc3c(Cl)cc(-n4ncc(=O)[nH]c4=O)cc3Cl)cc2CCN1c1ncccn1` [Example 50, 2-(3,5-dichloro-4-((1-oxo-2-(pyrimidin-2-yl)-1,2,3,4-tetrahydroisoquinolin-6-yl)oxy)phenyl)-1,2,4-triazine-3,5(2H,4H)-dione]: the EC50 in series [1] came out at 0.12 µM; in series [2], 0.274 µM.

Take `N#Cc1nn(-c2cc(Cl)c(Oc3ccc4c(c3)CCN(c3ncccn3)C4=O)c(Cl)c2)c(=O)[nH]c1=O` [Example 50f, 2-(3,5-dichloro-4-((1-oxo-2-(pyrimidin-2-yl)-1,2,3,4-tetrahydroisoquinolin-6-yl)oxy)phenyl)-3,5-dioxo-2,3,4,5-tetrahydro-1,2,4-triazine-6-carbonitrile]: the concentration for a half-maximal effect (EC50) in series [1] was found to be 0.213 µM; in series [2], 2.62 µM.

In the case of `N#Cc1nn(-c2cc(Cl)c(Oc3ccc4c(c3)CCN(C=O)C4=O)c(Cl)c2)c(=O)[nH]c1=O` [Example 51, 2-(3,5-dichloro-4-((2-formyl-1-oxo-1,2,3,4-tetrahydroisoquinolin-6-yl)oxy)phenyl)-3,5-dioxo-2,3,4,5-tetrahydro-1,2,4-triazine-6-carbonitrile], the EC50 in series [1] is 0.904 µM; in series [2], over 100 µM.

Take `O=C1c2ccc(Oc3c(Cl)cc(-n4ncc(=O)[nH]c4=O)cc3Cl)cc2CCN1c1nccs1` [Example 52, 2-(3,5-dichloro-4-((1-oxo-2-(thiazol-2-yl)-1,2,3,4-tetrahydroisoquinolin-6-yl)oxy)phenyl)-1,2,4-triazine-3,5(2H,4H)-dione]: the EC50 in series [1] was 0.016 µM; in series [2] it was 0.23 µM.
